The values that follow come from paper PMC9911168, “Cytotoxic and pro-apoptotic effects of botanical drugs derived from the indigenous cultivated medicinal plant Paris polyphylla var. yunnanensis” (Frontiers in Pharmacology, 2023).

“And” between values parts separate entries of the source, which are not always exact repeats. Equal entries are not always repeated. “Also recorded” adds a separate entry of the source. Where two headings read alike, the source gives them in different places.

Common to all, as to type: cell-based, human
For one assay, the system named is SMMC-7721. In words: MTS cell viability assay, SMMC-7721. The conditions noted are these: liver cancer cell line SMMC-7721, MTS, 48 h; for IC50: read-out: IC50 (±SD) SMMC-7721. The protocol:
(§1) The effects of the extracts and isolated saponins on cell growth were evaluated by the MTS assay (3-(4,5-dimethylthiazol-2-yl)-5(3-carboxymethoxyphenyl)-2-(4-sulfopheny)-2H-tetrazolium; Promega, Madison, WI, United States) on human tumor cell lines ([Mosmann, 1983]; [Cory et al., 1991]; [Malich et al., 1997]). In a test experiment of cell inhibition, the cell inhibition effects of six crude extracts (100 μg/mL) and six isolated saponins (40 μM) were roughly measured to ascertain whether to measure the IC50 value by MTS assay.
(§2) Each well of a 96-well plate (Multiskan Fc, Therm) was seeded with 100 μL cells at a density of 3,000–5,000 cells per well, with the cell suspension containing 10% (v/v) fetal bovine serum (DMEM or RMPI1640, Biological Industries, Kibbutz Beit-Haemek, Israel). After 12–24 h of inoculation and culture at 37°C, the extracts or saponins were added at the indicated concentrations after being dissolved in dimethyl sulfoxide (DMSO, Biological Industries, Kibbutz Beit-Haemek, Israel) in a final volume of 200 μL per well, each in triplicate. The six crude extracts were added at concentrations of 100, 20, 4, 0.8, and 0.16 μg/mL; the six isolated saponins were added at concentrations of 10, 5, 2.5, 1.25, 0.625, and 0.3125 μM. After culture for 48 h at 37°C, 20 μL of MTS solution and 100 μL of DMEM were added to each well; three blank wells were set aside with 20 μL MTS solution and 100 μL DMEM. After an incubation for another 2–4 h, the absorbance at 492 nm was measured. Cisplatin and Paclitaxel (MeilunBio) were used as a positive control in each experiment. The cell growth curve was drawn with the concentration as the abscissa and the cell survival rate as the ordinate. The IC50 value of each saponin was calculated by the two-point method ([Reed and Muench, 1938]).

The test system of another assay is HepG2. In words: MTS cell viability assay, HepG2. The conditions noted are these: liver cancer cell line HepG2, MTS, 48 h; for IC50: read-out: IC50 (±SD) HepG2. The protocol: as §1, §2
A general note: Tetrazolium assays rely on reduction of a dye to a coloured formazan, in cell work by metabolically active cells.

In a further assay the test system is SK-HEP-1. In words: MTS cell viability assay, SK-HEP-1. The conditions noted are these: liver cancer cell line SK-HEP-1, MTS, 48 h; for IC50: read-out: IC50 (±SD) SK-HEP-1. The protocol:
as §1, §2

In a further assay the test system is A549. In words: MTS cell viability assay, A549. Particulars: NSCLC cell line A549, MTS, 48 h; for IC50: read-out: IC50 (±SD) A549. The protocol:
as §1, §2

In another assay the test system is LO2. In words: MTS cell viability assay, normal liver cell LO2. The conditions noted are these: normal liver cell LO2, MTS, read-out: IC50 (±SD) LO2. Here is the method:
(§3) Three human liver cancer cell lines (SMMC-7721, HepG2, and SK-HEP-1) and the non-small-cell lung cancer (NSCLC) cell line A549 were obtained from ATCC (Manassas, VA, United States). Normal human cell lines (liver cell line LO2 and lung cell line BEAS-2B) were obtained from ATCC (Manassas, VA, United States). Cells were cultured in RMPI-1640 or DMEM medium (Biological Industries, Kibbutz Beit-Haemek, Israel) supplemented with 10% (v/v) fetal bovine serum (Biological Industries) at 37°C in a humidified atmosphere with 5% (v/v) CO2.
as §1, §2

The test system of another assay is BEAS-2B. In words: MTS cell viability assay, normal lung cell BEAS-2B. Particulars: normal lung cell BEAS-2B, MTS, read-out: IC50 (±SD) BEAS-2B. The protocol:
as §3, §1, §2

Assay [1] concerns A549 cells. Briefly: Cell cycle analysis (PI staining, flow cytometry), A549. Particulars: A549, 24 h; saponins 1 and 5 at 0.5 μM, other four at 1 μM. The protocol:
(§4) Cell cycle distribution was determined by propidium iodide (PI, BD, Pharmingen) staining ([Kong et al., 2016]; [Wei et al., 2021]). Briefly, three cancer cell lines were cultured in six-well plates at a density of 3 × 10^5 cells per well for 24 h before treatment with each of the six isolated saponins at the indicated concentrations for 24 h. The cells were collected, centrifuged, and washed twice with ice-cold PBS. Cells were fixed in 70% (v/v) ice-cold ethanol at 4°C overnight and washed again in PBS twice. The cells were incubated with 100 μL RNase A at 37°C for 30 min in the dark, after which 400 μL PI was added to the cells with RNase A in the dark at 4°C for 15 min. The cell cycle stage was analyzed by flow cytometry (BD, FACSCelesta, United States) with FLOWJO software (FlowJo, Ashland, OR, United States).
(In flow cytometry, cells or beads pass a laser one at a time.)

The test system of assay [2] is HepG2 cells. Briefly: Cell cycle analysis (PI staining, flow cytometry), HepG2. Particulars: HepG2, 24 h, 1 μM. Here is the method: as §4
For assay [3], the system named is A549 cells. Briefly: Apoptosis by annexin V-FITC/PI staining, A549. Particulars: A549, saponins 5 μM, Figure 7. The protocol:
(§5) Double staining with annexin V-fluorescein isothiocyanate (FITC) and PI was used to determine the effects of the six saponins on cell apoptosis by flow cytometry ([Homburg et al., 1995]; [Vermes et al., 1995]; [Casciola-Rosen et al., 1996]). The effects of the six isolated saponins on apoptosis were determined using an annexin V-FITC apoptosis kit (BD, Pharmingen); the chemotherapy drug doxorubicin (DOX, Beyotime Institute of Biotechnology, Shanghai, China) was used as the positive control. Cells were cultured in six-well plates at a density of 3 × 10^5 cells per well for 24 h before being treated with each of the six isolated saponins at the indicated concentrations for 24 h. The cells were collected, centrifuged, and washed twice with ice-cold phosphate-buffered saline (PBS). The cells were stained with annexin V-FITC and PI for 15 min in the dark at room temperature before analysis by flow cytometry (BD, FACSCelesta, America). Annexin V-FITC^+ and PI^+ (Q2) were considered late-stage apoptotic cells, while annexin V-FITC^+ and PI^− (Q3) cells were considered early-stage apoptotic cells. Annexin V-FITC^– and PI^+ (Q1) were necrotic or mechanically damaged cells, and annexin V-FITC^– and PI^− (Q4) cells were healthy living cells.

The subject of a further assay is SMMC-7721 cells. Briefly: Apoptosis by annexin V-FITC/PI staining, SMMC-7721. The conditions noted are these: SMMC-7721, saponins 5 μM, Figure 7. Here is the method:
as §5

Assay [4] concerns HepG2 cells. Briefly: Apoptosis by annexin V-FITC/PI staining, HepG2. The conditions noted are these: HepG2, saponins 5 μM, Figure 7. The protocol: as §5

One may read the IC50 as the midpoint of a concentration-inhibition curve. In the case of `N.N.[Cl][Pt][Cl]` [Cisplatin, reference compound], the “IC50 (±SD) SMMC-7721” value in the assay with SMMC-7721 amounted to 5.05 ± 0.12 µg/mL. In addition, the IC50 in the assay on SMMC-7721 was 17800 ± 570 nM; in the assay on HepG2, 5670 ± 100 nM; in the assay on SK-HEP-1, 21000 ± 710 nM; with A549 it was 26100 ± 520 nM; in the assay on LO2, 13800 ± 480 nM; in the assay on BEAS-2B, greater than 40 µM. In addition, the “IC50 (±SD) HepG2” value in the assay on HepG2 worked out at 1.90 ± 0.13 µg/mL. The “IC50 (±SD) SK-HEP-1” value in the assay on SK-HEP-1 was 8.79 ± 0.49 µg/mL. For the same molecule, in the assay on A549, the “IC50 (±SD) A549” value is 16.74 ± 0.68 µg/mL.

For `CC(=O)O[C@H]1C(=O)[C@@]2(C)[C@H]([C@H](OC(=O)c3ccccc3)[C@]3(O)C[C@H](OC(=O)[C@H](O)[C@@H](NC(=O)c4ccccc4)c4ccccc4)C(C)=C1C3(C)C)[C@]1(OC(C)=O)CO[C@@H]1C[C@@H]2O` [Paclitaxel, reference compound], the IC50 with SMMC-7721 (Homo sapiens) was 0.12 µg/mL and 180 nM; with HepG2 (Homo sapiens), < 0.01 µg/mL and < 10 nM; in the assay on SK-HEP-1 (Homo sapiens, SK-HEP1), < 0.01 µg/mL and < 10 nM; in the assay on A549 (Homo sapiens) it was < 0.01 µg/mL and < 10 nM; with LO2 (Homo sapiens, L02), less than 10 nM; in the assay with BEAS-2B (Homo sapiens), greater than 5 µM.

For `CC1CCC2(OC1)OC1CC3C4CC=C5CC(OC6OC(CO)C(OC7OC(C)C(OC8OC(C)C(O)C(O)C8O)C(O)C7O)C(O)C6OC6OC(C)C(O)C(O)C6O)CCC5(C)C4CCC3(C)C1(O)C2C` [saponin 5, pennogenin 3-O-α-L-rhamnopyranosyl-(1→2)-[α-L-rhamnopyranosyl-(1→4)-α-L-rhamnopyranosyl-(1→4)]-β-D-glucopyranoside], the concentration for half-maximal inhibition (IC50) with SMMC-7721 (Homo sapiens) was 1200 ± 100 nM; in the assay with HepG2 (Homo sapiens), 1570 ± 10 nM; with SK-HEP-1 (Homo sapiens, SK-HEP1), 940 ± 60 nM; with A549 (Homo sapiens), 900 ± 10 nM; in the assay with LO2 (Homo sapiens, L02), 900 ± 20 nM; with BEAS-2B (Homo sapiens), 0.94 ± 0.03 µM. Also, the “cell cycle phase with increased proportion of cells compared to DMSO control” value in the assay with A549 cells [1] was “S phase”; with HepG2 cells [2], “S and G2/M phases”. Moreover, the “apoptosis rate (induction of apoptosis, in words)” value with A549 cells [3] is “stronger apoptosis than the positive control DOX”; in the assay on A549 cells [3] (listed as Saponin 5), “strong apoptosis”; with SMMC-7721 cells, “substantial induction of apoptosis; also recorded: stronger apoptosis than the positive control DOX”; in the assay with HepG2 cells [4] it was “highest apoptosis rate; also recorded: stronger apoptosis than the positive control DOX”.

As to `CC1CCC2(OC1)OC1CC3C4CC=C5CC(OC6OC(CO)C(OC7OC(CO)C(O)C7O)C(O)C6OC6OC(C)C(O)C(O)C6O)CCC5(C)C4CCC3(C)C1(O)C2C` [saponin 2, pennogenin-3-O-α-L-arabinofuranosyl-(1→4)-[α-L-rhamnopyranosyl-(1→2)]-β-D-glycopyranoside], the IC50 with SMMC-7721 (Homo sapiens) worked out at 1880 ± 70 nM; with HepG2 (Homo sapiens), 2140 ± 10 nM; with SK-HEP-1 (Homo sapiens, SK-HEP1), 1580 ± 80 nM; in the assay with A549 (Homo sapiens), 1250 ± 20 nM; with LO2 (Homo sapiens, L02), 2330 ± 100 nM; with BEAS-2B (Homo sapiens), 4.95 ± 0.04 µM. Further, the “cell cycle phase with increased proportion of cells compared to DMSO control” value with A549 cells [1] was “S and G2/M phases”; in the assay with HepG2 cells [2], “S and G2/M phases”. Further, the “apoptosis rate (induction of apoptosis, in words)” value in the assay with A549 cells [3] is “strong apoptosis”; in the assay on HepG2 cells [4] it was “next”.

For `CC1CCC2(OC1)OC1CC3C4CC=C5CC(OC6OC(CO)C(OC7OC(CO)C(O)C7O)C(O)C6OC6OC(C)C(O)C(O)C6O)CCC5(C)C4CCC3(C)C1C2C` [saponin 4, diosgenin-3-O-α-L-arabinofuranosyl-(1→4)-[α-L-rhamnopyranosyl-(1→2)]-β-D-glucopyranoside], the IC50 with SMMC-7721 (Homo sapiens) was 720 ± 20 nM; with HepG2 (Homo sapiens), 1590 ± 30 nM; in the assay on SK-HEP-1 (Homo sapiens, SK-HEP1), 660 ± 40 nM; with A549 (Homo sapiens), 580 ± 10 nM; in the assay with LO2 (Homo sapiens, L02) it was 850 ± 10 nM; in the assay with BEAS-2B (Homo sapiens), 1.82 ± 0.09 µM. Further, the “cell cycle phase with increased proportion of cells compared to DMSO control” value with A549 cells [1] is recorded as “increase in the proportion of cells at the G2/M phase”. The “increase of proportion of cells in the G2/M phase compared to DMSO control” value in the assay on HepG2 cells [2] turned out to be 17.2%.

For `CC1CCC2(OC1)OC1CC3C4CC=C5CC(OC6OC(CO)C(OC7OC(C)C(O)C(O)C7O)C(O)C6OC6OC(C)C(O)C(O)C6O)CCC5(C)C4CCC3(C)C1C2C` [saponin 3, diosgenin-3-O-α-L-rhamnopyranosyl-(1→2)-[α-L-rhamnopyranosyl-(1→4)]-β-D-glucopyranoside], the IC50 with SMMC-7721 (Homo sapiens) amounted to 2560 ± 80 nM; in the assay on HepG2 (Homo sapiens), 3800 ± 50 nM; with SK-HEP-1 (Homo sapiens, SK-HEP1) it was 1800 ± 70 nM; with A549 (Homo sapiens), 1690 ± 40 nM; in the assay on LO2 (Homo sapiens, L02), 3780 ± 180 nM; in the assay on BEAS-2B (Homo sapiens), 3.07 ± 0.19 µM. In the assay on A549 cells [1], the “cell cycle phase with increased proportion of cells compared to DMSO control” value is on record as “G0/G1 phase”. Moreover, the “increase of proportion of cells in S phase compared to DMSO control” value in the assay on HepG2 cells [2] is listed as 27.5%.
